Data set [1] has as its system mitochondria of live U2OS cells. The experiment in a line: Cellular retention after dye-free media exchange washes. It counts as cell-based. As to conditions: 1 h, 37° C., 0, 1 or 2 dye-free media washes. As to the method:
To compare cellular retention of 15, 20, and MitoView 405, U2OS cells were incubated with 15 (200 nM), 20 (200 nM) or MitoView 405 (100 nM; Biotium) for 1 h at 37° C.

Data set [2] can be described thus: Chemical stability (iminium hydrolysis) by LC-MS. It is filed as physicochemical. The conditions noted are these: 25 μM; citrate pH 5, PBS pH 7.4, Tris pH 9; sampled every 30 min over 12 h. The method, then:
Measurement of chemical stability and photostability by tandem high-pressure liquid chromatography-mass spectrometry (LC-MS; FIG. 3A-D, FIG. 4A-4D, FIG. 6, FIG. 10). To examine the chemical stability and photostability of the DAB dyes, samples were assessed by tandem high-pressure liquid chromatography-mass spectrometry (LC-MS) using an Agilent 1200 LC-MS system equipped with an autosampler, diode array detector, and mass spectrometry detector (ESI; positive ion mode) using a 4.6×150 mm Gemini NX-C18 column with a 5-95% or 5-50% gradient of CH3CN in H2O containing constant 0.1% (v/v) TFA. Chromatograms were monitored using absorbance at 254 nm or 400 nm. To investigate chemical hydrolysis, solutions of 8, 11, and 13-15 (100 μM) were prepared in PBS, pH 7.4. An aliquot of this freshly prepared solution was immediately analyzed by LC-MS (t=0). The solution was then incubated at ambient temperature protected from light for 48 h and analyzed again by LC-MS (t=48 h). Standard samples of coumarins 6, 10, and 12 (100 μM, PBS) were analyzed in the same manner. To compare the stability of compounds 15 and 20 under different conditions, solutions of each dye (25 μM) in citrate buffer, pH 5, PBS, pH 7.4, or Tris buffer, pH 9 were prepared in an autosampler vial and the sample was analyzed using the LC-MS instrumentation every 30 min. […]

The subject of another data set is U2OS cells. Nature of the data set: In-cell photostability experiments. It is filed as cell-based. The conditions noted are these: 405 nm laser, 15 photobleaching cycles. The method, then:
In-cell photostability experiments (FIG. 9C). U2OS cells were incubated with 15 (200 nM), 20 (200 nM) or MitoView 405 (100 nM; Biotium) for 1 h at 37° C. and imaged live without washing using a Leica SP8 Falcon confocal microscope with enabled adaptive focus control (AFC), an HC PL-APO 86×/1.20 water objective, and a 405 nm diode laser at 58.9% laser power. […] These images were processed using FIJI.^25

Data set [3] in a line: Quantum yield determination (absolute, integrating sphere).
Procedure: Unless otherwise noted, Φf values were measured in PBS, pH 7.4. This instrument uses an integrating sphere to determine photons absorbed and emitted by a sample. Measurements were carried out using dilute samples (A<0.1) and self-absorption corrections^24 were performed using the instrument software. Reported values are averages (n=3).
Data set [4] is described as follows: UV-vis and fluorescence spectroscopy. As to conditions: for absorptivity, quantum yield and brightness in nonpolar conditions relative to PBS: SDS micelles and dioxane:water mixtures.
Procedure: Spectroscopy was performed using 1-cm path length, 3.5-mL quartz cuvettes from Starna Cells. All measurements were taken at ambient temperature (22±2° C.). […] Fluorescence spectra were recorded on a Cary Eclipse fluorometer (Varian). Unless otherwise noted, maximum absorption wavelength (λabs), extinction coefficient (ε), and maximum emission wavelength (λem) were measured in PBS, pH 7.4. Reported values and spectra are averages (n=3).
A short description of data set [5]: Photochemistry under 405 nm illumination, analysis by LC-MS. As to conditions: PBS, 5 and 20 min. It is filed as physicochemical. As to the method:
To investigate photochemistry, solutions of 8, 11, and 13-15 (100 μM) were prepared in PBS and placed in a glass vial. An aliquot of this freshly prepared solution was immediately analyzed by LC-MS (−hv). The solution was then irradiated with 405 nm light from an LED array (LOCTITE CL20 flood array) for 5 min (t=5 min) and 20 min (t=20 min) followed by analysis using LC-MS. Photochemical adducts 17/17i and 18/18i were purified and the spectral properties of these isomeric mixtures were analyzed. These compounds were then treated with 1 or 2 equivalents of NaOH(aq) to hydrolyze the iminium bond; the resulting oxidized coumarin products S1/S1i and S2/S2i were observed by LC-MS.

Data set [6] is described as follows: Chemical stability by fluorescence in different buffers and media. As to conditions: 1 μM; citrate pH 5, PBS pH 7.4, Tris pH 9, DMEM, DMEM+10% FBS. It is filed as physicochemical. The method, then: Measurement of chemical stability by fluorescence (FIG. 5A-5B). To compare the chemical stability of 15 in different conditions using changes in fluorescence, samples (1 μM) of 15 were prepared in the following solutions: citrate buffer, pH 5; PBS, pH 7.4; Tris buffer, pH 9; DMEM; and DMEM containing 10% v/v FBS (DMEM+FBS). 200 μL of each solution (n=3) was placed in a black, clear-bottom 96-well microplate (Nunc, 165305) and sealed with an adhesive film. The fluorescence of the DAB dye was monitored using 445 nm excitation and 510-550 nm emission (integrated signal) reading from the bottom of the plate using a TECAN Spark microplate reader controlled with SparkControl software.

Data on six molecules can be found in patent US12528944B2, “Live-cell fluorescent mitochondrial stains” (HOWARD HUGHES MEDICAL INSTITUTE, priority 2022, dated 2026).

“Also recorded” adds a separate entry of the source.

Turning to `Cc1cc(=[N+]2CCC(CCCC3CC[N+](=c4cc(C)c5cc6c7c(c5o4)CCCN7CCC6)CC3)CC2)oc2c3c4c(cc12)CCCN4CCC3.O=C([O-])C(F)(F)F.O=C([O-])C(F)(F)F` (stereo not shown) [Compound 20, 4,4′-(propane-1,3-diyl)bis(1-(9-methyl-2,3,6,7-tetrahydro-1H,5H,11H-pyrano[2,3-f]pyrido[3,2,1-ij]quinolin-11-ylidene)piperidin-1-ium) trifluoroacetate], in data set [1], the “cellular signal upon media exchange (retention)” value is given as “retained”. Moreover, the “rate of hydrolysis relative to 15” value in data set [2] is given as “slightly higher rate of hydrolysis”. The “resistance to photobleaching in live cells” value with U2OS cells is “best overall photostability”. Besides, the “fluorescence quantum yield (Φf)” value in data set [3] (PBS containing 0.1% w/v SDS) turned out to be 0.83; in data set [3] (PBS, pH 7.4), 0.45. The “extinction coefficient at λabs (ε)” value in data set [4] (PBS containing 0.1% w/v SDS) is 78,900 M^−1 cm^−1; in data set [4] (aqueous solution (PBS, pH 7.4)), 45,200 M^−1 cm^−1. The “maximum absorption wavelength (λabs)” value in data set [4] (PBS, pH 7.4) came to 447 nm. Also, the “maximum fluorescence emission wavelength (λem)” value in data set [4] (PBS, pH 7.4) worked out at 524 nm. Further, in data set [4], the “absorptivity, quantum yield and brightness in nonpolar conditions relative to PBS” value is “brighter in dioxane:water mixtures”.

For the molecule `Cc1cc(N2CCC2)[o+]c2cc(N3CCC3)ccc12.O=C([O-])C(F)(F)F` [Compound 11, 2,7-Di(azetidin-1-yl) 4-methylbenzopyrylium trifluoroacetate], the “fluorescence quantum yield (Φf)” value in data set [3] (PBS, pH 7.4) is 0.79. In data set [4] (PBS, pH 7.4), the Stokes shift is listed as 99 nm, the “bathochromic shift in λabs relative to parent coumarin” value is 48 nm and the “shift in λem relative to parent coumarin” value amounted to 34 nm.

Turning to `CCN(CC)c1ccc2c(C)cc(N(CC)CC)[o+]c2c1.O=C([O-])C(F)(F)F` [Compound 8, 2,7-Bis(diethylamino)-4-methylbenzopyrylium trifluoroacetate], the “fluorescence quantum yield (Φf)” value in data set [3] (PBS, pH 7.4) was 0.16. Moreover, in data set [4] (PBS, pH 7.4), the Stokes shift is reported as 65 nm, the “bathochromic shift in λabs relative to parent coumarin” value is on record as 45 nm and the “shift in λem relative to parent coumarin” value turned out to be 26 nm.

With `Cc1cc(=[N+]2CCCCC2)oc2c3c4c(cc12)CCCN4CCC3.O=C([O-])C(F)(F)F` [Compound 15, 1-(9-methyl-2,3,6,7-tetrahydro-1H,5H,11H-pyrano[2,3-f]pyrido[3,2,1-ij]quinolin-11-ylidene)piperidin-1-ium trifluoroacetate], the “cellular signal upon media exchange (retention)” value in data set [1] (trifluoroacetate) is given as “rapidly decreased upon media exchange; also recorded: signal rapidly decreased”. Besides, the photochemical oxidation result in data set [5] is on record as “no photochemically driven oxidation was detected on the piperidine ring”. In data set [6], the “rate of hydrolysis in different buffer conditions” value is given as “modestly higher rates of hydrolysis was observed at elevated pH or in cell culture media containing serum”. In addition, in data set [4], the “absorptivity, quantum yield and brightness in nonpolar conditions relative to PBS” value was “higher absorptivity and fluorescence quantum yield”.

For `CC[N+](CC)=c1cc(C)c2cc3c4c(c2o1)CCCN4CCC3.O=C([O-])C(F)(F)F` [Compound 13, N-ethyl-N-(9-methyl-2,3,6,7-tetrahydro-1H,5H,11H-pyrano[2,3-f]pyrido[3,2,1-ij]quinolin-11-ylidene)ethanaminium trifluoroacetate], in data set [4] (PBS, pH 7.4), the Stokes shift turned out to be 68 nm and the “maximum fluorescence emission wavelength (λem)” value amounted to 513 nm.

For `CCN(CC)c1ccc2c(C)cc(=O)oc2c1` [Compound 6, 7-diethylamino-4-methylcoumarin, reference compound], in data set [3] (PBS, pH 7.4), the “fluorescence quantum yield (Φf)” value is reported as 0.06.
